Test system: spontaneously hypertensive rats (SHR)
Experiment: Blood pressure in spontaneously hypertensive rats
Format: in vivo, rat
Procedure: As the 11-nonyloxy-undec-8(Z)-enoic acid derivatives lowered blood pressure in angiontensin hypertension, additional experiments were performed to determine if one of the derivatives could lower blood pressure in another hypertension model system. Male spontaneously hypertensive rats (SHRs) were maintained on a 12-hour light-dark cycle and allowed access to food and water ad libitum. These studies complied with the protocols for animal use outlined by the American Physiological Society and were approved by the institutional animal care and use committee.
Rats from 6 to 12 weeks of age were treated with 11-nonyloxy-undec-8(Z)-enoic acid derivative (TVR-I-276-21)( 2 mg/d i.p.) or vehicle for 8 days. Blood pressure was measured at Day 0, Day 4, and Day 8.
The blood pressure lowering effects of these analogs were analyzed in an established model of hepertension, the spontaneously hypertensive rats (SHR) using telemetry. […] As discussed in the previous example, additional derivatives with improved solubility and resistance to auto-oxidation and metabolism by sEH were designed using the pharmacophoric moiety of EET.
Amidation of the carboxylic group with aspartic acid produced another EET analog 32 (SA-III-161-32). […] Amidation of the carboxylic group with lysine amino acid produced another EET analog 34 (SA-III-172-26).

CCCCCCCCCOCC/C=C\CCCCCCC(=O)O [11,12-ether EET-8-ZE, 11-nonyloxy-undec-8(Z)-enoic acid, reference compound]
blood pressure lowering: failed to lower blood pressure

CCCCCCCCCOCC/C=C\CCCCCCC(=O)OCCOCCOCCO [TVR-I-276-21, (Z)-2-(2-(2-hydroxyethoxy)ethoxy)ethyl 11-(nonyloxy)undec-8-enoate]
blood pressure (2 mg/d i.p. for 8 days, measured Day 0, 4, 8, versus vehicle): did not increase to the same extent as those that received the vehicle treatment

CCCCCCCCCOCC/C=C\CCCCCCC(=O)NC(CC(=O)O)C(=O)O (centres unmarked) [SA-III-161-32, (Z)-2-(11-(nonyloxy)undec-8-enamido) succinic acid]
blood pressure lowering effect (injected at 3 mg/day for 5 days): demonstrated a blood pressure lowering effect | MAP Δ change at day 2 of injection (injected at 3 mg/day for 5 days, telemetry): −8±1.3 mmHg

CCCCCCCCCOCC/C=C\CCCCCCC(=O)NC(CCCCN)C(=O)O (centres unmarked) [SA-III-172-26, (Z)-6-amino-2-(11-(nonyloxy)undec-8-enamido)hexanoic acid]
blood pressure lowering effect (injected at 2 mg/day): minimal blood pressure lowering effect

From patent US7732470B2, “Compositions and methods for the treatment of renal and cardiovascular disease” (Medical College of Georgia Research Institute, priority 2006, dated 2010)
